Tests used:
AMPKα2β1γ1 complex = target: T1, AMPKα2β1γ1 complex (Homo sapiens, UniProt P54646+Q9Y478); assay: HTRF KinEASE activity assay with bacterially-expressed, phosphorylated purified AMPKα2β1γ1; type: biochemical; conditions: varying concentrations, 30 mins incubation, cell free; FIG. 1
T1 construct: His; made in house
Description: Varying concentrations of compound 1 and compound 2 were incubated with phosphorylated purified AMPK α2β1γ1 for 30 mins. AMPK activity was determined using the HTRF KinEASE assay kit and results are presented as the ratio of 665/620 nm (STK1 phosphorylation).
The AMPKα2β1γ1 complex was expressed in bacteria and purified through the His-α subunit by nickel purification, purified through gel filtration and phosphorylated by incubation with CaMKKβ, and then further purified through a final gel filtration purification step. Phosphorylated purified AMPK was incubated with varying concentrations of ligand for 30 mins along with substrate and reagents from the HTRF-KinEASE Cisbio assay kit (STK S1 Kit). Phosphorylation of the substrate was measured by incubating with donor and acceptor antibodies for 2 h at room temperature as per the manufacturer's protocol (Coulerie et al., (2016), J Nat Prod. 2016 Nov. 23; 79(11):2856-2864. Epub 2016 Oct. 28.) and phosphorylated peptide detected by performing HTRF. […] Compound 1 is 3-methoxy-6H-benzo[c]chromene-1,8-diol and Compound 2 is 8-methoxy-6H-benzo[c]chromene-3,10-diol.

[1] = test system: AMPK (phosphorylation of ACC) in U-2 OS Flp-In T-REx mammalian cells; assay: pACC HTRF (Cisbio) assay in U-2 OS Flp-In T-REx cells; type: cell-based; conditions: varying concentrations, 30 mins at 37 C, FIG. 2
Description: U-2 OS cells were treated with varying concentrations of compound 1 or compound 2 for 30 mins at 37 C. Phosphorylation of ACC was assessed using the HTRF Cisbio (pACC kit).
U-2 OS Flp-In T-REx cells were seeded at 50 K in a 96-well plate and left overnight at 37 C in DMEM GlutaMAX (Thermo Fisher Scientific) supplemented with 10% (vol/vol) FBS and 100 U/ml penicillin G, and 100 μg/ml streptomycin. Cells were treated for 30 mins with varying concentrations of Compound 1 in media lacking FBS and then cells were lysed in 50 μl of Cisbio lysis buffer #1 supplemented with blocking solution as per the manufacturer's protocol (Cisbio). Cells were lysed for 30 mins at room temperature before 16 μl of lysate was incubated with 4 μl of the HTRF antibodies (1:40 dilution of the acceptor and donor (p) ACC antibodies, as per the manufacturers protocol). Lysates were incubated overnight with the antibodies before 665 nm/620 nm ratio was determined using a MolecularDevices i3 plate reader (with a HTRF cartridge add-on). The results are plotted as fold activation compared to the respective AMPK complex without any compound.

[2] = test system: AMPK complexes containing β1 WT subunit; assay: pACC HTRF assay in AMPKβ1/β2 double knockout U-2 OS cells stably expressing β1 WT; type: cell-based, human; conditions: AMPKβ1β2 double knockout cells stably expressing β1 WT, varying concentrations, 30 mins at 37 C; FIG. 3 and FIG. 4
Description: (§1) The β1 WT or β1 S108A mutant were stably expressed in AMPKβ1β2 double knockout cells and treated with varying concentrations of compound 1 or compound 2 for 30 mins at 37 C. Phosphorylation of ACC was assessed using the HTRF Cisbio (pACC kit).
(§2) U-2 OS cells AMPKβ1β2 double knockout cells stably expressing AMPK β1 or β2 were treated with varying concentrations of Compound 1 or compound 2 for 30 mins at 37 C.
(§3) Phosphorylation of ACC was assessed using the HTRF Cisbio (pACC kit).
(§4) AMPKβ1/β2 double knockout U-2 OS Flp-In™ T-Rex™ cell lines were generated and cells were genotyped and analysed by Western blotting to confirm that there was a complete knockout of AMPKβ1/β2. We took these AMPKβ1/β2 double knockout cells, and re-introduced the expression of human β1 wild-type (WT) or a β1 Serine 108 to alanine mutation (S108A). This was achieved using the Flp-In™ system (Invitrogen) present in this cell line and stable cells expressing β1 WT or a β1 S108A mutant were generated according to the manufacturers' protocols.
(§5) Cells stably expressing β1 WT or a β1 S108A mutant were treated with varying concentrations of compound 1 and compound 2 and subjected to the pACC HTRF (Cisbio) assay to determine the level of phosphorylation of the AMPK substrate, ACC, in cell lysates, as in Example 2.
We took AMPKβ1/β2 double knockout cells, and re-introduced the expression of human β1 WT or β2 WT isoforms. […]

[3] = test system: AMPK complexes containing β1 S108A mutation at the ADaM site; assay: pACC HTRF assay in AMPKβ1/β2 double knockout U-2 OS cells stably expressing β1 S108A mutant; type: cell-based, human; conditions: AMPKβ1β2 double knockout cells stably expressing β1 S108A mutant, varying concentrations, 30 mins at 37 C; FIG. 3
Description: as §1, §4, §5

[4] = test system: AMPK complexes containing the β2 isoform subunit; assay: pACC HTRF assay in AMPKβ1/β2 double knockout U-2 OS cells stably expressing β2 WT; type: cell-based, human; conditions: AMPKβ1β2 double knockout cells stably expressing β2 WT isoform, varying concentrations, 30 mins at 37 C; FIG. 4
Description: as §2, §3
We took AMPKβ1/β2 double knockout cells, and re-introduced the expression of human β1 WT or β2 WT isoforms. […] Cells stably expressing β1 WT or β2 WT were treated with varying concentrations of compound 1 and compound 2, and subjected to the pACC HTRF (Cisbio) assay to determine the level of phosphorylation of the AMPK substrate, ACC, in cell lysates, as in example 2. […] This activation profile is characteristic of activators that bind to the ADaM site and consistent with previous studies showing that ADaM-site activators have poorer activation of β2-containing complexes in vitro and in cells.

T1 sequence (P54646 whole entry): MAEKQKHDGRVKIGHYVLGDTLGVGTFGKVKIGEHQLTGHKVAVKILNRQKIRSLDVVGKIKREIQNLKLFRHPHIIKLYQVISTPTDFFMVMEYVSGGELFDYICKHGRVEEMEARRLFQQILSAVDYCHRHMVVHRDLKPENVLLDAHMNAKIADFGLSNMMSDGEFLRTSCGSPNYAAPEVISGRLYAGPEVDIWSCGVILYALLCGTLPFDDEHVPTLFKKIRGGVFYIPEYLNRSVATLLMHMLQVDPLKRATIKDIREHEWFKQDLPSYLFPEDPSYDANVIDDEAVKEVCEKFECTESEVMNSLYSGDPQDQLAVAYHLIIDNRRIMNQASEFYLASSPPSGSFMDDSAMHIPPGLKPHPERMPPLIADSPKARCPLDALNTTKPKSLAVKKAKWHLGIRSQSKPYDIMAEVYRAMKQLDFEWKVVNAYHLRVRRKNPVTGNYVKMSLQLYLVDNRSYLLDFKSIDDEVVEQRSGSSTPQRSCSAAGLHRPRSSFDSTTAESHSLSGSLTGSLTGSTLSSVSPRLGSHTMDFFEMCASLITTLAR
T1 sequence (Q9Y478 whole entry): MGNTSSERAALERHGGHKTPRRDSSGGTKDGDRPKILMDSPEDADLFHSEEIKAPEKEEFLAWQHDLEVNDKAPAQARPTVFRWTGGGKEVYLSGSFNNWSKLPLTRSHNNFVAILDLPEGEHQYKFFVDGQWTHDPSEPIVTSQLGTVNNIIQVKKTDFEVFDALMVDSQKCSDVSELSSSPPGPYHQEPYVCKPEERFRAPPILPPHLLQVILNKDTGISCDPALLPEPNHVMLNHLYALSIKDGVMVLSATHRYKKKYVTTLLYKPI
T1 sequence (P54619 whole entry partner): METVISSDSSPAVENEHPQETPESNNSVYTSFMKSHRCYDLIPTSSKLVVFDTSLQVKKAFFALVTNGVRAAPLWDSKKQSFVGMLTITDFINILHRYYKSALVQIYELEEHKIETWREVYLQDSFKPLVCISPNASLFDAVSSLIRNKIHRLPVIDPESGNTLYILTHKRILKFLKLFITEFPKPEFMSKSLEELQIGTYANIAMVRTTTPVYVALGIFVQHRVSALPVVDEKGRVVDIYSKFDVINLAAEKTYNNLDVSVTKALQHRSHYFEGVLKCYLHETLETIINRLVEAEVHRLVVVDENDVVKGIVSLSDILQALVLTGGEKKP

SMILES | AMPK activity (665 nm/620 nm ratio, STK1 substrate phosphorylation) (AMPKα2β1γ1 complex) | Phosphorylation of ACC (fold activation relative to untreated cells) [1] | Phosphorylation of ACC (pACC, fold increase relative to untreated cells) [2] | Phosphorylation of ACC (pACC, fold increase relative to untreated cells) [3] | Phosphorylation of ACC (pACC, fold increase relative to untreated cells) [4]
COc1cc(O)c2c(c1)OCc1cc(O)ccc1-2 [Compound 1, 3-methoxy-6H-benzo[c]chromene-1,8-diol] | allosterically activate AMPKα2β1γ1 in a dose-dependent manner | increase the phosphorylation of the AMPK substrate, ACC, in a dose-dependent manner | able to dose-dependently increase pACC | not able to increase pACC | not able to increase pACC
COc1cc(O)c2c(c1)COc1cc(O)ccc1-2 [Compound 2, 8-methoxy-6H-benzo[c]chromene-3,10-diol] | allosterically activate AMPKα2β1γ1 in a dose-dependent manner | increase the phosphorylation of the AMPK substrate, ACC, in a dose-dependent manner | able to dose-dependently increase pACC | not able to increase pACC | not able to increase pACC

Reference: patent US20230026772A1, “DIBENZOPYRAN AMPK ACTIVATOR COMPOUNDS, COMPOSITIONS, METHODS AND USES THEREOF” (SOCIETE DES PRODUITS NESTLE S.A., priority 2019, published 2023)
